Measurements: patent US11826402B2, “Combination therapy involving antibodies against claudin 18.2 for treatment of metastatic pancreatic adenocarcinoma” (Astellas Pharma Inc., priority 2013, dated 2023)

Assays:
[1] = tested on: established MiaPaCa-2-LVT xenograft tumors; experiment: Established MiaPaCa-2-LVT xenograft tumors, high dose gemcitabine; assay type: in vivo, mice; conditions: established MiaPaCa-2-LVT tumors, gemcitabine 2×150 mg/kg per week, independent from IMAB362
Text: 9 days after subcutaneous tumor inoculation, tumor bearing mice reorganised in homogenous treatment groups with 8 animals per group and treatment was initiated.

Panc05.04 [2] = experiment: IMAB362-mediated ADCC assay (luciferase, human PBMCs, E:T 40:1); assay type: cell-based
Procedure: For ADCC assays pancreatic cancer cell lines were transiently transfected with luciferase RNA. This luciferase RNA (pST1-luc2mut-2 hBgUTR-A121-EciI vector (pST1-109)) was produced with an ARCA cap and dissolved in H2O. RNA was stored in 22 μl aliquots at −80° C. For all pancreas cell lines the optimal electroporation conditions were determined resulting in highest transfection rates and viability of the cells. In each assay cells were detached with PBS/5 mM EDTA and 2.5×10^6 cells dissolved in 250 μl X-Vivo were mixed in ice-cold cuvettes with 10 μg RNA. Cells were immediately electroporated (GenePulser Xcell, Biorad) and resuspended in pre-warmed Assay-medium adjusting the cells to 5×10^5 cells/ml. Tested electroporation conditions were for all cell lines: • EP1: 250 V, 475 μF • EP2: 200 V, 300 μF • EP3: 150 V, 300 μF • EP4: 200 V, 400 μF • EP5: 250 V, 950 μF • Control: 0 V, 0 μF
The viability of the cells was determined directly after electroporation using CASY or by staining cells with Trypan blue and determining the percentage of dead cells in the Neubauer chamber. Cells were seeded in quadruplicates in white 96-well plates (2.5×10^4 cells/well) and incubated for 24 h. Subsequently, luciferase activity was measured in a luminometer (Tecan Infinite200) after addition of luciferin mix for 90 min. Transfection was successful and consequently ADCC measurable, if RLU values >1.000 were obtained.
Pancreatic cancer target cells were seeded two days in advance in flasks to obtain 80-90% confluent cultures on the day ADCC started. […] NUGC-4 sub 10cH11 subE10 Luci #2 cells (8000 cells/well) were seeded in addition as positive controls in all assays. Cells were cultivated for 4-6 h before addition of antibody and purified PBMCs. PBMCs were prepared from fresh human buffy coat obtained from healthy donors. About 3× 20-25 ml blood was diluted (1:2) with PBS and carefully layered on 4×15 ml Ficol-Paque Plus (GE Healthcare) in 50 ml Falcon tubes. Gradients were centrifuged (25 min, 700 g). After centrifugation, peripheral blood mononuclear cells (PBMC) were collected from the interphase, washed in PBS/2 mM EDTA, centrifuged (5 min, 468 g), again resuspended in PBS/2 mM EDTA and centrifuged (10 min, 208 g) to remove the platelets. The pellets were resuspended in 50 ml PBS/2 mM EDTA and cells were counted. PBMCs were centrifuged (5 min, 468 g) and resuspended in X-Vivo-15 culture medium at a concentration of 1.6×10^7 cells/ml for addition to the pancreas cells and 1.28×10^7 cells/ml for addition to the NUGC-4 sub 10cH11 subE10 Luci #2 cells.
Of each dilution 25 μl was added in quadruplicates to the target cells. PBS without antibodies was added in the medium and lysis control wells. Subsequently, 25 μl PBMCs were added to each well (E:T ratio=40:1) and plates were incubated for 24 h±1 h at 37° C., 5% CO2.
The next day, 10 μl 8% Triton X100/PBS solution was added to the lysis control wells and 10 μl PBS in all other wells. Finally, 50 μl freshly prepared luciferin stock solution was added (160 mM HEPES, 1×PBS, 3.84 mg/ml D-Luciferin (BD Biosciences)) to each well and plates were incubated for 80 min at RT in the dark. Luminescence resulting from the oxidation of […] by the luciferase of viable cells was measured using a microplate-reader (Infinite200, Tecan, Switzerland). Percentage of cellular cytotoxicity was calculated using the following formula: Specific killing (%)=100−[(RLUsample−RLUtriton)/(RLUmedium ctrl−RLUtriton)×100] […]

Panc05.04 [3] = experiment: IMAB362-mediated CDC assay (healthy human serum pool, luciferase); assay type: cell-based
Procedure: (§1) CDC was performed as follows.

BxPC3 = experiment: as above; assay type: cell-based
Procedure: as §1

Suit2 = experiment: as above; assay type: cell-based
Procedure: as §1

DANG = experiment: as above; assay type: cell-based
Procedure: as §1

CAPAN1 = experiment: as above; assay type: cell-based
Procedure: as §1

YAPC = experiment: as above; assay type: cell-based
Procedure: as §1

Panc02.03 = experiment: IMAB362-mediated ADCC assay; assay type: cell-based, human; conditions: at least 2 donors
Suit2-LVT cells = experiment: FACS binding to Suit2-LVT cells; design: species or system human; conditions: 200 μg/ml antibody
Procedure: Cells were harvested with PBS/5 mM EDTA or Trypsin/EDTA from an exponentially growing culture at 70-85% confluency. Cells were counted, centrifuged for 5 min (468 g) and the pellet was resuspended in FACS buffer (2% FCS, 0.1% sodium azide in PBS) adjusting the concentration to 2×10^6/ml. 100 μl cells were plated in round bottom 96-well plates and again centrifuged (5 min, 468 g). […] Then, 200 μl FACS buffer was added to each well and plates were centrifuged (5 min, 468 g). The supernatant was removed and washing was repeated. Secondary goat anti-human antibodies (FC specific, F(ab′)2 conjugated with APC (Dianova)) were diluted (1:100) in FACS buffer and 30 μl was added to each well. Plates were incubated for 30 min at 4° C. After incubation plates were washed again two times with 200 μl FACS buffer and the pellet was finally resuspended in 100 μl FACS buffer for measurement FACS Array Bioanalyzer (BD) according to GA_018_BD FACS Array bioanalyzer.
In addition to tissue processing, it is possible that the result represents unexpected inhibiting effects of the isotype control antibody targeting CLDN6. To investigate this option, the Suit2-LVT cells were analyzed for CLDN6 expression and IMAB027 binding in FACS.

CLDN18.1 = CLDN18.1 (Homo sapiens, UniProt P56856); experiment: Binding to other claudin family members (background)
Chain of CLDN18.1 (P56856 whole entry): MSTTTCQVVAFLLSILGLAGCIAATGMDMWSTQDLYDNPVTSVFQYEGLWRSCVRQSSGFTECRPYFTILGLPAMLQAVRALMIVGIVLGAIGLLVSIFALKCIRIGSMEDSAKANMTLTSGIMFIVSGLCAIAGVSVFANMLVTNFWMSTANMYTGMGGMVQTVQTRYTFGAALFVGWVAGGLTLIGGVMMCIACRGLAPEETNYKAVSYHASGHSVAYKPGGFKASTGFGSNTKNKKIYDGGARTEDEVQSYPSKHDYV

## Nc1ccn([C@@H]2O[C@H](CO)[C@@H](O)C2(F)F)c(=O)n1 [gemcitabine, 4-amino-1-(2-deoxy-2,2-difluoro-β-D-erythro-pentofuranosyl)pyrimidin-2(1H)-one]
[1]
  tumor growth: strongly inhibited in tumor growth

## IMAB362: chimeric IgG1 antibody directed against CLDN18.2, developed by Ganymed Pharmaceuticals AG
Panc05.04 [2]; Panc05.04
  ADCC killing by IMAB362 and PBMCs: efficiently killed
Panc05.04 [2]; Panc05.04 (pooled with DANG), PBMCs of different donors, E:T 40:1
  EC50 of effector cell-dependent killing (ADCC): 0.1 to 38 µg/mL
Panc05.04 [2]; Panc05.04, at highest antibody concentrations
  maximum killing rate (ADCC): ~50%
Panc05.04 [2]; Panc05.04, at least 2 donors
  ADCC EC50: 5.7288 ± 4.4351 µg/mL
  ADCC Max. lysis: 67.1 ± 6.8%
Panc05.04 [3]
  CDC EC50: n.m.
  CDC Max. lysis: n.m.
Panc05.04 [3]; healthy human serum pool
  complement-dependent lysis: not lysed
BxPC3
  complement-dependent lysis: not lysed
Suit2
  CDC EC50: n.m.
  CDC Max. lysis: n.m.
Suit2; healthy human serum pool
  complement-dependent lysis: not lysed
DANG
  CDC EC50: n.m.
  CDC Max. lysis: n.m.
DANG; healthy human serum pool
  complement-dependent lysis: not lysed
CAPAN1
  CDC EC50: n.m.
  CDC Max. lysis: n.m.
CAPAN1; healthy human serum pool
  complement-dependent lysis: not lysed
YAPC; YAPC, healthy human serum pool
  complement-dependent lysis: not lysed
YAPC; YPAC
  CDC EC50: n.m.
  CDC Max. lysis: n.m.
Panc02.03
  ADCC EC50: n.m.
  ADCC Max. lysis: n.m.
Suit2-LVT cells
  binding to cells in FACS: strong binding
CLDN18.1
  binding to CLDN18.1 and other claudin family members: does not bind
